Like-named read-outs stand apart in the source and are kept apart here. Where a SMILES comes first, the peptide text is derived from it. Bridges are numbered along the chain shown (N, C = ends). Roman numbers before positions name the chains, in order. Where no end group is shown, it is not given here. [ ]: non-standard residue; d: D form.

The subject of one data set is HeLa cells. Nature of the data set: MTT cytotoxicity assay, HeLa cells. The format is cell-based. On the procedure: (§1) The cytotoxic as well as antiproliferative effect of peptides was determined using MTT [3-(4, 5-dimethylthiazol-2-yl)-2, 5-diphenyl tetrazolium bromide] colorimetric assay. MCF-7, NIH-3T3, HeLa and H460 cells were cultured and after confluency, cells were used to test the cytotoxicity by MTT assay. Briefly (3×10^4/mL) of MCF-7 and (2×10^4/mL) cells of NIH-3T3, HeLa and H460 were seeded in 96-wells plate and incubated at 37° C. in 5% CO2 for 24 h. The MCF-7 cells were then treated with different doses of peptides and re-incubated in 5% CO2 at 37° C. for 48 hours. […] Experiment was performed three times and all doses were repeated in triplicate and the calculations were done using formula for percent inhibition.
(Formazan colour is commonly taken as a measure of viable cells.)

A short description of data set [1]: MTT cytotoxicity assay, 3T3 cells. Particulars: mouse; for IC50: Cytotoxicity IC50, 3T3. The format is cell-based, mouse. The procedure: as §1
For data set [2], the system named is NIH-3T3 murine fibroblast cell line. Nature of the data set: MTT cytotoxicity assay, 3T3 cells. It is filed as cell-based, mouse. On the procedure:
as §1

The subject of data set [3] is MCF-7 human breast cancer cell line. The experiment in a line: MTT cytotoxicity assay, MCF-7 cells. It is filed as cell-based. On the procedure:
as §1

In another data set the test system is H460 cells. Nature of the data set: MTT cytotoxicity assay, H460 cells. The format is cell-based. On the procedure: as §1
Data set [4] concerns DoHH2 cells (B-cell lymphoma). The experiment in a line: Alamar blue viability assay, DoHH2 cells. It is filed as cell-based. On the procedure: The viability of DoHH2 cells was determined by Alamar blue assay. Briefly 200 μl of 1×10^5 cells/ml were incubated with different concentrations of compounds for 24 hours. A one-tenth volume of Alamar blue was then added and the incubation continued for 4 hrs. Absorbance was read in spectrophotometer at wavelengths of 570 nm and 600 nm.

A further data set relates to MCF-7 cells. The experiment in a line: Cell-growth on bead assay. The format is cell-based, human. Particulars: peptide on bead.
The subject of the next data set is THP-1 monocytes. Particulars: cited from earlier work.
Another data set has as its system HepG2 cells. Particulars: cited from earlier work.
The test system of data set [5] is bacteria, yeasts, fungi, and protozoa. Particulars: cited from earlier work.
For data set [6], the system named is Leishmania infantum promastigote and amastigote. Particulars: cited from earlier work.
[7] abbreviates: MTT, 48 hours, read-out: Cytotoxicity IC50, HeLa.
Setting [8] is: MTT, 48 hours, read-out: Cytotoxicity IC50, MCF-7.
Where [9] appears, read: MTT, 48 hours, read-out: Cytotoxicity IC50, H460.
[10] abbreviates: Alamar blue, 24 hours, read-out: Cytotoxicity IC50, DoHH2.

What is called IC50 is the concentration that gives 50% inhibition. As for `CC[C@H](C)[C@H](NC(=O)[C@@H](C)NC(=O)[C@H](CO)NC(=O)[C@H](CC(C)C)NC(=O)[C@@H](N)Cc1ccccc1)C(=O)N[C@H](C(=O)NCC(=O)N[C@@H](CCSC)C(=O)N[C@@H](CC(C)C)C(=O)NCC(=O)N[C@@H](CCCCN)C(=O)N[C@@H](CC(C)C)C(=O)N[C@@H](Cc1ccccc1)C(N)=O)C(C)C` [compound 2, F-L-S-a-I-V-G-M-L-G-K-L-F] (H-FLS[dA]IVGMLGKLF-NH2), the concentration for half-maximal inhibition (IC50) is more than 100 µM in the data set with HeLa cells (setting [7]); more than 100 µM in data set [1]; 17.9 ± 1.1 µM in data set [3] (setting [8]); more than 100 µM with H460 cells (setting [9]); more than 100 µM in data set [4] (setting [10]). Moreover, the “Cytotoxicity against 3T3 cell line (in words)” value (shortened to “Cytotoxicity … (in words)”) in data set [2] was “inactive”.
For the compound “WLEAAYQKFL (not fully specified) [peptide A, breast cancer targeting peptide ligand]”, in the data set on MCF-7 cells, the “Binding to MCF-7 cells” value is given as “strong binding”.
For the compound “[A^2,6,9, K^3] temporin-SHa [[A^2,6,9, K^3] SHa]”, in the data set with THP-1 monocytes, the “Cytotoxicity on THP-1 monocytes (literature)” value was “inactive”. The “Cytotoxicity on HepG2 cells (literature)” value in the data set with HepG2 cells was “inactive”. Besides, in data set [5], the “Antimicrobial / antibacterial activity (literature)” value is “lack the antibacterial and antiparasitic activity”. In addition, in [6], the “Antiparasitic activity (literature)” value was “lack the antibacterial and antiparasitic activity”.
`CC[C@H](C)[C@H](NC(=O)CNC(=O)[C@H](CO)NC(=O)[C@H](CC(C)C)NC(=O)[C@@H](N)Cc1ccccc1)C(=O)N[C@H](C(=O)NCC(=O)N[C@@H](CCSC)C(=O)N[C@@H](CC(C)C)C(=O)N[C@H](C)C(=O)N[C@@H](CCCCN)C(=O)N[C@@H](CC(C)C)C(=O)N[C@@H](Cc1ccccc1)C(N)=O)C(C)C` [peptide 4, F-L-S-G-I-V-G-M-L-a-K-L-F] (H-FLSGIVGML[dA]KLF-NH2): the half-maximal inhibitory concentration (IC50) in the data set on HeLa cells (MTT, 48 hours, listed as SEQ ID NO: 4, read-out: Cytotoxicity IC50, HeLa) was 16 to 24 µM; in the data set with HeLa cells (setting [7]), 22.7 ± 0.86 µM; in data set [1] it was 16 to 24 µM; in [2] (mouse), 16 ± 3.7 µM; in [3] (MTT, 48 hours, listed as SEQ ID NO: 4, read-out: Cytotoxicity IC50, MCF-7), 16 to 24 µM; in data set [3] (setting [8]), 16.2 ± 2.2 µM. Besides, the IC50 was 16 to 24 µM with H460 cells (MTT, 48 hours, listed as SEQ ID NO: 4, read-out: Cytotoxicity IC50, H460); 24.3 ± 0.84 µM in the data set with H460 cells (setting [9]); more than 100 µM in data set [4] (setting [10]). The “Cytotoxicity … (in words)” value in [2] was “cytotoxic”.
On to `CC[C@H](C)[C@H](NC(=O)CNC(=O)[C@H](CO)NC(=O)[C@H](CC(C)C)NC(=O)[C@@H](N)Cc1ccccc1)C(=O)N[C@H](C(=O)NCC(=O)N[C@@H](CCSC)C(=O)N[C@@H](CC(C)C)C(=O)N[C@H](C)C(=O)N[C@@H](CCCCNC(=O)[C@H](CC(C)C)NC(=O)[C@H](Cc1ccccc1)NC(=O)[C@H](CCCCN)NC(=O)[C@H](CCC(N)=O)NC(=O)[C@H](Cc1ccc(O)cc1)NC(=O)[C@H](C)NC(=O)[C@H](C)NC(=O)[C@H](CCC(=O)O)NC(=O)[C@H](CC(C)C)NC(=O)[C@@H](N)Cc1c[nH]c2ccccc12)C(=O)N[C@@H](CC(C)C)C(=O)N[C@@H](Cc1ccccc1)C(N)=O)C(C)C` [conjugate 7] (I: H-FLSGIVGML[dA]KLF-NH2 / II: H-WLEAAYQKFL; amide I:11-II:C), for which the IC50 in the data set on HeLa cells (human, 48 h) was more than 100 µM; in the data set with H460 cells (human, 48 h), more than 100 µM; in data set [4] (human, 24 h), more than 100 µM. Besides, the IC50 at 48 h in [1] is more than 100 µM.
`COc1cccc2c1C(=O)c1c(O)c3c(c(O)c1C2=O)C[C@@](O)(C(=O)CO)C[C@@H]3O[C@H]1C[C@H](N)[C@H](O)[C@H](C)O1` [Doxorubicin, reference compound]: the IC50 turned out to be 5.7 ± 0.36 µM in the data set on HeLa cells (Homo sapiens, HeLa, 48 h, read-out: Cytotoxicity IC50, HeLa) and 1.6 ± 0.2 µM in [3] (Homo sapiens, MCF7, 48 h, read-out: Cytotoxicity IC50, MCF-7).
`CC[C@H](C)[C@H](NC(=O)CNC(=O)[C@H](CO)NC(=O)[C@H](CC(C)C)NC(=O)[C@@H](N)Cc1ccccc1)C(=O)N[C@H](C(=O)NCC(=O)N[C@@H](CCSC)C(=O)N[C@@H](CC(C)C)C(=O)N[C@H](C)C(=O)N[C@@H](CCCCN)C(=O)N[C@@H](CC(C)C)C(=O)N[C@@H](Cc1ccccc1)C(=O)N[C@@H](CCCCNC(=O)[C@H](CCCCNC(=O)[C@H](CC(C)C)NC(=O)[C@H](Cc1ccccc1)NC(=O)[C@H](CCCCN)NC(=O)[C@H](CCC(N)=O)NC(=O)[C@H](Cc1ccc(O)cc1)NC(=O)[C@H](C)NC(=O)[C@H](C)NC(=O)[C@H](CCC(=O)O)NC(=O)[C@H](CC(C)C)NC(=O)[C@@H](N)Cc1c[nH]c2ccccc12)NC(=O)[C@H](Cc1ccccc1)NC(=O)[C@H](CC(C)C)NC(=O)[C@H](CCCCN)NC(=O)[C@@H](C)NC(=O)[C@H](CC(C)C)NC(=O)[C@H](CCSC)NC(=O)CNC(=O)[C@@H](NC(=O)[C@@H](NC(=O)CNC(=O)[C@H](CO)NC(=O)[C@H](CC(C)C)NC(=O)[C@@H](N)Cc1ccccc1)[C@@H](C)CC)C(C)C)C(N)=O)C(C)C` [conjugate 8] (I: H-FLSGIVGML[dA]KLFK-NH2 / II: H-FLSGIVGML[dA]KLFK / III: H-WLEAAYQKFL; amide I:14-II:C, II:14-III:C (inferred); N-terminus assumed): in the data set on HeLa cells (MTT), the “Activity against HeLa cell line (in words)” value is recorded as “active”. Moreover, the concentration for half-maximal inhibition (IC50) was 8.7 ± 0.65 µM with HeLa cells (human, 48 h); 1.7 µM in data set [3] (human, 48 h); 14.3 ± 0.7 µM in the data set on H460 cells (human, 48 h); more than 100 µM in data set [4] (human, 24 h). The compound further yielded an IC50 at 48 h in data set [1] of more than 100 µM. The “Cytotoxicity … (in words)” value in data set [2] is given as “no cytotoxicity”. Besides, the “Activity against H460 cell line (in words)” value in the data set with H460 cells (MTT) is on record as “active”.
Turning to [A^2,6,9] temporin-SHa [[A^2,6,9] SHa], the “Cytotoxicity on THP-1 monocytes (literature)” value in the data set on THP-1 monocytes is “inactive”. For the same compound, the “Cytotoxicity on HepG2 cells (literature)” value in the data set on HepG2 cells is “inactive”. Further, in [5], the “Antimicrobial / antibacterial activity (literature)” value was “lack the antibacterial and antiparasitic activity”. In addition, the “Antiparasitic activity (literature)” value in [6] is “lack the antibacterial and antiparasitic activity”.
For [K^3] temporin-SHa, the “Antimicrobial / antibacterial activity (literature)” value in [5] is “more potent antimicrobial activity than temporin-SHa”.
Regarding `CC[C@H](C)[C@H](NC(=O)CNC(=O)[C@H](CO)NC(=O)[C@H](CC(C)C)NC(=O)[C@@H](N)Cc1ccccc1)C(=O)N[C@H](C(=O)N[C@H](C)C(=O)N[C@@H](CCSC)C(=O)N[C@@H](CC(C)C)C(=O)NCC(=O)N[C@@H](CCCCN)C(=O)N[C@@H](CC(C)C)C(=O)N[C@@H](Cc1ccccc1)C(N)=O)C(C)C` [compound 3, F-L-S-G-I-V-a-M-L-G-K-L-F] (H-FLSGIV[dA]MLGKLF-NH2), the IC50 in the data set with HeLa cells (human, 48 h) was more than 100 µM; in data set [3] (human, 48 h) it was 22.4 ± 2.2 µM; with H460 cells (human, 48 h), more than 100 µM; in data set [4] (human, 24 h), more than 100 µM. In data set [1], this compound had a concentration for half-maximal inhibition (IC50) at 48 h of more than 100 µM. Also, in data set [2], the “Cytotoxicity … (in words)” value is “inactive”.
On to `CC[C@H](C)[C@H](NC(=O)[C@@H](C)NC(=O)[C@H](CO)NC(=O)[C@H](CC(C)C)NC(=O)[C@@H](N)Cc1ccccc1)C(=O)N[C@H](C(=O)N[C@H](C)C(=O)N[C@@H](CCSC)C(=O)N[C@@H](CC(C)C)C(=O)NCC(=O)N[C@@H](CCCCN)C(=O)N[C@@H](CC(C)C)C(=O)N[C@@H](Cc1ccccc1)C(N)=O)C(C)C` [compound 5, F-L-S-a-I-V-a-M-L-G-K-L-F] (H-FLS[dA]IV[dA]MLGKLF-NH2), for which the half-inhibitory concentration (IC50) in the data set on HeLa cells (human, 48 h) was more than 100 µM; in [3] (human, 48 h), 29.5 ± 6.03 µM; in the data set with H460 cells (human, 48 h) it was 37.3 ± 3.5 µM; in [4] (human, 24 h) it was more than 100 µM. This compound displayed an IC50 at 48 h in [1] of more than 100 µM. Further, the “Cytotoxicity … (in words)” value in [2] is “no cytotoxicity”.
On to `CC[C@H](C)[C@H](NC(=O)[C@@H](C)NC(=O)[C@H](CO)NC(=O)[C@H](CC(C)C)NC(=O)[C@@H](N)Cc1ccccc1)C(=O)N[C@H](C(=O)N[C@H](C)C(=O)N[C@@H](CCSC)C(=O)N[C@@H](CC(C)C)C(=O)N[C@H](C)C(=O)N[C@@H](CCCCN)C(=O)N[C@@H](CC(C)C)C(=O)N[C@@H](Cc1ccccc1)C(N)=O)C(C)C` [compound 6, F-L-S-a-I-V-a-M-L-a-K-L-F] (H-FLS[dA]IV[dA]ML[dA]KLF-NH2), for which the half-inhibitory concentration (IC50) was more than 100 µM in the data set with HeLa cells (human, 48 h); 26.3 ± 5.8 µM in data set [3] (human, 48 h); more than 100 µM in the data set with H460 cells (human, 48 h); more than 100 µM in data set [4] (human, 24 h). Further, the half-inhibitory concentration (IC50) at 48 h in [1] was more than 100 µM. For the same compound, the “Cytotoxicity … (in words)” value in [2] was “inactive”.

(Values after patent publication US10550155B2, “Anticancer peptides” (priority 2018, dated 2020).)
